Calls of active or inactive are those of the source. No cut-off for these calls is given here.
Columns and labels:
[1] = biological target: Human immunodeficiency virus type 1 integrase (Human immunodeficiency virus 1, UniProt Q7ZJM1); test: Inhibition of recombinant HIV1 integrase strand transfer activity
[2] = tested on: Human immunodeficiency virus 1; test: Antiviral activity against HIV1 3B infected in human MT4 cells after 24 hrs by p24 ELISA; assay type: functional; conditions: Human immunodeficiency virus 1, 3B, MT4, 24 h; read-out: CIC95
MT4 = test: Cytotoxicity against human MT4 cells at concentrations up to 20 uM; assay type: cell-based
[3] = tested on: Human immunodeficiency virus 1; test: Antiviral activity against HIV1 at concentrations upto 20 uM; assay type: functional, organism-based
[4] = Half life in rat at 2 mg/kg, iv; assay type: ADME, organism-based; set-up: dose 2 mg/kg, route intravenous; conditions: in vivo
[5] = Clearance in rat at 2 mg/kg, iv; assay type: ADME, organism-based; set-up: dose 2 mg/kg, route intravenous; conditions: in vivo

Sequence of Human immunodeficiency virus type 1 integrase (Q7ZJM1 whole entry): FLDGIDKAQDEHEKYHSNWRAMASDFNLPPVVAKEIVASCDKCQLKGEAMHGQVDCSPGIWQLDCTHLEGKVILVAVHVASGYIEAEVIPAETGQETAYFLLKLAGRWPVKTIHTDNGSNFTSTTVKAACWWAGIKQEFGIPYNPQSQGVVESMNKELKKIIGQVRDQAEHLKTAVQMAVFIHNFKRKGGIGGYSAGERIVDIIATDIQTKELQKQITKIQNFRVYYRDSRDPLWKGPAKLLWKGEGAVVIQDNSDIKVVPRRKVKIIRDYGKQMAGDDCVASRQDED
Description for physchem: Dissociation constant, pKa of the compound

SMILES | IC50 [1] | pKa (physchem) | half-life [4] | clearance [5] | IC95 [2] | Activity (MT4) | Activity [3]
CCOC(=O)c1cn2c(c1O)C(=O)N(Cc1ccccc1)CC2 | 220 nM |  |  |  | 20000 nM | Non-toxic | 
CCOC(=O)c1cn2c(c1O)C(=O)N(Cc1ccc(F)cc1)CCC2 | > 5000 nM |  |  |  |  |  | 
CNC(=O)c1cn2c(c1O)C(=O)N(Cc1ccc(Cl)c(Cl)c1)CC2 | 40 nM |  |  |  | 1250 nM |  | 
CCOC(=O)c1cn2c(c1O)C(=O)N(Cc1ccc(F)cc1)CC2 | 40 nM |  |  |  | 3230 nM | Non-toxic | 
CCOC(=O)c1cn2c(c1O)C(=O)N(Cc1ccc(Cl)cc1)CC2 | 40 nM |  |  |  | 1020 nM | Non-toxic | 
CCOC(=O)c1cn2c(c1O)C(=O)N(Cc1cccc(F)c1)CC2 | 110 nM |  |  |  | 9380 nM | Non-toxic | 
CNC(=O)c1cn2c(c1O)C(=O)N(Cc1ccc(Cl)cc1)CC2 | 60 nM |  |  |  | 2500 nM |  | 
CNC(=O)c1cn2c(c1O)C(=O)N(Cc1ccc(F)cc1)CC2 | 80 nM |  |  |  | 10000 nM |  | 
O=C(O)c1cn2c(c1O)C(=O)N(Cc1ccccc1)CC2 | 80 nM | 3.8 |  |  | > 20000 nM |  | inactive

The next molecules have a lower IC50 [1] than those just listed; values first:

IC50 [1] | pKa (physchem) | half-life [4] | clearance [5] | SMILES | IC95 [2] | Activity (MT4) | Activity [3]
10 nM | 3.8 |  |  | O=C(O)c1cn2c(c1O)C(=O)N(Cc1cccc(Cl)c1)CC2 | > 20000 nM |  | inactive
10 nM |  | 30 min | 30 mL/min/kg | CCOC(=O)c1cn2c(c1O)C(=O)N(Cc1ccc(Cl)c(Cl)c1)CC2 | 310 nM | Non-toxic | 
20 nM |  |  |  | CCOC(=O)c1cn2c(c1O)C(=O)N(Cc1ccc(F)c(Cl)c1)CC2 | 940 nM | Non-toxic | 
< 10 nM |  |  |  | CN1CCc2c(c(O)c3n2CCN(Cc2ccc(F)cc2)C3=O)C1=O | 390 nM |  | 
< 10 nM |  |  |  | O=C1c2c(O)c3n(c2CCN1Cc1ccc(F)cc1)CCN(Cc1ccc(F)cc1)C3=O | 70 nM |  | 
30 nM |  |  |  | CCOC(=O)c1cn2c(c1O)C(=O)N(Cc1cccc(Cl)c1)CC2 | 1250 nM | Non-toxic | 
< 10 nM |  |  |  | CN1CCn2c3c(c(O)c2C1=O)C(=O)N(Cc1ccc(F)cc1)CC3 | 160 nM |  | 

Source: ChEMBL document CHEMBL1137622, “8-Hydroxy-3,4-dihydropyrrolo[1,2-a]pyrazine-1(2H)-one HIV-1 integrase inhibitors” (Bioorg Med Chem Lett, 2007)
